In PMC10545567, “A complex bearing TSPO PIGA ligand coordinated to the [Au(PEt3)]^+ pharmacophore is highly cytotoxic against ovarian cancer cells” (Biometals, 2023):

Molecular target: T1, Thioredoxin reductase (TrxR) (Rattus norvegicus, UniProt O89049)
T1 construct: gene Txnrd1
Assay: DTNB reduction assay with isolated rat liver TrxR, […] nm, […] min preincubation with NADPH

T1 sequence (O89049 whole entry): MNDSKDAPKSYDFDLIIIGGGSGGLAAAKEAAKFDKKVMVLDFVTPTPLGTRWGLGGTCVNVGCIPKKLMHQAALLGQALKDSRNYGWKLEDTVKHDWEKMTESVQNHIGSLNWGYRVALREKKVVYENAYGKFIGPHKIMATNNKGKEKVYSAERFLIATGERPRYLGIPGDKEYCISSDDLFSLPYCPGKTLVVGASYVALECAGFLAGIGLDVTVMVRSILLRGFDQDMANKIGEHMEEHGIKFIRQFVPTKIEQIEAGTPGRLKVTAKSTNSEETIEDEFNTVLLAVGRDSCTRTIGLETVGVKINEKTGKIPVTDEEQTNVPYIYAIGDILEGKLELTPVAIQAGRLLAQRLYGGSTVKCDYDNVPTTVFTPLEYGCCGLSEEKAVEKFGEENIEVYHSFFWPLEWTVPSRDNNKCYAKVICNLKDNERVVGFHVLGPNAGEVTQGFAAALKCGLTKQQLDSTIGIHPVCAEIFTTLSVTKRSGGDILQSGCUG

SMILES: CCCCCCN(CCCCCC)C(=O)C(=O)c1c(-c2ccccc2)[n]([Au-][P+](CC)(CC)CC)c2ccccc12 [compound 1, [N,N-di-n-hexyl-2-(2-phenyl-1-indol-kN-3-yl)glyoxylamido]-AuPEt3]
- IC50: 0.0592 µM

SMILES: CC[P+](CC)(CC)[Au-][Cl] [compound 5, Et3PAuCl]
- IC50: 0.0511 µM
